{"source": "patent US20140357713A1", "about": "“ANTIMICROBIAL COMPOUNDS AND METHODS OF USE” (NexMed Holdings, Inc., priority 2012, published 2014)", "key": {"[1]": {"tested_on": "Candida albicans (ATCC 90029)", "assay": "Minimum inhibitory concentration (MIC) assay, Example 33", "format": "cell-based", "settings": "Candida albicans", "procedure,_shortened": "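Broth microdilution per CLSI guidelines in RPMI 1640; inoculum set to OD530 0.08–0.13, diluted 1:50 then 1:20 to 2× strength and mixed 1:2 with 2-fold serial compound dilutions. Incubated at 35° C; MIC read per CLSI.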"}, "[2]": {"tested_on": "Escherichia coli (ATCC 25922)", "assay": "Time kill study, Example 33 (0 to 5 min)", "format": "cell-based", "settings": "1×MIC", "procedure,_shortened": "(§1)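 Performed per CLSI guidelines. Strain suspensions prepared as for MIC testing were mixed with compound solution in equal volume; samples taken at 0 min, 30 sec, 1 min and 5 mins were diluted in test medium, streaked on agar, and colonies counted after 24 to 48 hrs to give viable counts in Log10 CFU/mL.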"}, "[3]": {"tested_on": "Staphylococcus aureus (ATCC 29213)", "assay": "Time kill study, Example 33 (0 to 5 min)", "format": "cell-based", "settings": "1×MIC", "procedure,_shortened": "as §1"}, "[4]": {"tested_on": "Pseudomonas aeruginosa (ATCC 27853)", "assay": "Time kill study, Example 33 (0 to 5 min)", "format": "cell-based", "settings": "1×MIC", "procedure,_shortened": "as §1"}, "[5]": {"tested_on": "Aspergillus niger (CMCC 98003)", "assay": "Minimum inhibitory concentration (MIC) assay, Example 33", "format": "cell-based", "settings": "Aspergillus niger", "procedure,_shortened": "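Broth microdilution MIC per CLSI guidelines in RPMI 1640 with serial 2-fold compound dilutions. Spore suspension from sporulating colonies adjusted to OD530 0.09-0.13, diluted 1:50 as 2× inoculum and added 1:2 to drug wells; plates incubated at 35 °C and MIC read per CLSI.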"}, "pH (Table 1)": {"assay": "pH (Table 1)", "format": "physicochemical"}, "[6]": {"assay": "Solubility (Sol., Table 1)", "format": "physicochemical"}, "[7]": {"tested_on": "Escherichia coli (ATCC 25922)", "assay": "Minimum inhibitory concentration (MIC) assay, Example 33", "format": "cell-based", "settings": "Escherichia coli", "procedure,_shortened": "(§2)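 Broth microdilution per CLSI guidelines in CAMHB, with 2-fold serial compound dilutions. Inoculum was set to a 0.5 McFarland standard, diluted 1:100 to twice the test density, then mixed 1:2 with drug. Plates were incubated at 35° C and the MIC read per CLSI.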"}, "[8]": {"tested_on": "Pseudomonas aeruginosa (ATCC 27853)", "assay": "Minimum inhibitory concentration (MIC) assay, Example 33", "format": "cell-based", "settings": "Pseudomonas aeruginosa", "procedure,_shortened": "as §2"}, "[9]": {"tested_on": "Staphulococcus aureus (ATCC 29213)", "assay": "Minimum inhibitory concentration (MIC) assay, Example 33", "format": "cell-based, Staphylococcus aureus", "settings": "Staphylococcus aureus", "procedure,_shortened": "as §2"}}, "note": "Like-named read-outs stand apart in the source and are kept apart here.", "data": [{"smiles": "CCCCCCCCCCCC(C)(C)OC(=O)C(C)N(C)C.Cl", "note": "(stereo not drawn) [Nex-65, 2-Methyltridecan-2-yl 2-(dimethylamino)propanoate hydrochloride]", "values": [{"measurement": "MIC", "setting": "[1]; ATCC90029, Table 19 summary, read-out: MIC", "result": "> 12500", "unit": "µg/mL"}, {"measurement": "MIC", "setting": "[1]; ATCC90029, n = 1, read-out: MIC Candida albicans", "result": "> 12500", "unit": "µg/mL"}, {"measurement": "MIC", "setting": "[1]; ATCC90029, n = 2, read-out: MIC Candida albicans", "result": "> 12500", "unit": "µg/mL"}, {"measurement": "Viable counts, Escherichia coli time kill study", "setting": "[2]; 0.5 min", "result": 5.72, "unit": "Log10 CFU/mL"}, {"measurement": "Viable counts, Escherichia coli time kill study", "setting": "[2]; 1 min", "result": 5.97, "unit": "Log10 CFU/mL"}, {"measurement": "Viable counts, Escherichia coli time kill study", "setting": "[2]; 5 min", "result": 4.22, "unit": "Log10 CFU/mL"}, {"measurement": "Viable counts, Escherichia coli time kill study", "setting": "[2]; time 0", "result": 5.68, "unit": "Log10 CFU/mL"}, {"measurement": "Viable counts, Staphylococcus aureus time kill study", "setting": "[3]; 0.5 min", "result": 6.39, "unit": "Log10 CFU/mL"}, {"measurement": "Viable counts, Staphylococcus aureus time kill study", "setting": "[3]; 1 min", "result": 6.35, "unit": "Log10 CFU/mL"}, {"measurement": "Viable counts, Staphylococcus aureus time kill study", "setting": "[3]; 5 min", "result": 6.17, "unit": "Log10 CFU/mL"}, {"measurement": "Viable counts, Staphylococcus aureus time kill study", "setting": "[3]; time 0", "result": 6.34, "unit": "Log10 CFU/mL"}, {"measurement": "Viable counts, Pseudomonas aeruginosa time kill study", "setting": "[4]; 0.5 min", "result": 5.36, "unit": "Log10 CFU/mL"}, {"measurement": "Viable counts, Pseudomonas aeruginosa time kill study", "setting": "[4]; 1 min", "result": 5.52, "unit": "Log10 CFU/mL"}, {"measurement": "Viable counts, Pseudomonas aeruginosa time kill study", "setting": "[4]; 5 min", "result": "<3.52", "unit": "Log10 CFU/mL"}, {"measurement": "Viable counts, Pseudomonas aeruginosa time kill study", "setting": "[4]; time 0", "result": 5.52, "unit": "Log10 CFU/mL"}, {"measurement": "MIC", "setting": "[5]; CMCC98003, Table 19 summary, read-out: MIC", "result": "> 12500", "unit": "µg/mL"}, {"measurement": "MIC", "setting": "[5]; CMCC98003, n = 1, read-out: MIC Aspergillus niger", "result": "> 12500", "unit": "µg/mL"}, {"measurement": "MIC", "setting": "[5]; CMCC98003, n = 2, read-out: MIC Aspergillus niger", "result": "> 12500", "unit": "µg/mL"}, {"measurement": "pH", "setting": "pH (Table 1)", "result": 1.66}, {"measurement": "melting point", "result": "100 to 106", "unit": "°C"}, {"measurement": "Sol.", "setting": "[6]", "result": 51, "unit": "%"}, {"measurement": "MIC", "setting": "[7]; ATCC25922, Table 19 summary of Example 33 and Example 35, read-out: MIC", "result": 3130, "unit": "µg/mL"}, {"measurement": "MIC", "setting": "[7]; ATCC25922, n = 1, read-out: MIC E. coli", "result": 3130, "unit": "µg/mL"}, {"measurement": "MIC", "setting": "[7]; ATCC25922, n = 2, read-out: MIC E. coli", "result": 3130, "unit": "µg/mL"}, {"measurement": "MIC", "setting": "[8]; ATCC27853, Table 19 summary, read-out: MIC", "result": 6250, "unit": "µg/mL"}, {"measurement": "MIC", "setting": "[8]; ATCC27853, n = 1, read-out: MIC P. aeruginosa", "result": 6250, "unit": "µg/mL"}, {"measurement": "MIC", "setting": "[8]; ATCC27853, n = 2, read-out: MIC P. aeruginosa", "result": 6250, "unit": "µg/mL"}, {"measurement": "MIC", "setting": "[9]; ATCC29213, Table 19 summary, read-out: MIC", "result": 3130, "unit": "µg/mL"}, {"measurement": "MIC", "setting": "[9]; ATCC29213, n = 1, read-out: MIC S. aureus", "result": 3130, "unit": "µg/mL"}, {"measurement": "MIC", "setting": "[9]; ATCC29213, n = 2, read-out: MIC S. aureus", "result": 3130, "unit": "µg/mL"}]}]}
